Data from PubChem BioAssay (NCI).
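96-well plates; 48 h exposure; 5 concentrations. Endpoints by linear interpolation between flanking doses. Not reached: highest tested concentration assigned. Here, GI50 denotes the concentration required for 50% inhibition of growth. TGI marks complete inhibition of growth.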

Assays:
Assay in all cases: growth of human tumour cells (NCI), 48 h
[1] = system: RPMI-8226 leukemia
[2] = system: U251 CNS
[3] = system: MOLT-4 leukemia
[4] = system: UACC-257 melanoma
[5] = system: OVCAR-3 ovarian
[6] = system: MALME-3M melanoma
[7] = system: SR leukemia
[8] = system: SK-MEL-5 melanoma
[9] = system: SK-MEL-2 melanoma
[10] = system: MCF7 breast
[11] = system: EKVX NSCLC
[12] = system: MDA-MB-231 breast
[13] = system: NCI-H460 lung
[14] = system: MDA-MB-435
[15] = system: SN12C renal
[16] = system: T-47D breast
[17] = system: CAKI-1 renal
[18] = system: PC-3 prostate
[19] = system: A549 NSCLC
[20] = system: HT29 colon
[21] = system: HOP-62 NSCLC
[22] = system: SF-295 CNS
[23] = system: COLO 205 colon
[24] = system: SK-OV-3 ovarian
[25] = system: DU-145 prostate
[26] = system: HL-60(TB) leukemia
[27] = system: BT-549 breast
[28] = system: NCI-H226 lung
[29] = system: 786-0 renal
[30] = system: SK-MEL-28 melanoma
[31] = system: A498 renal
[32] = system: HCC-2998 colon
[33] = system: UO-31 renal
[34] = system: HCT-116 colon
[35] = system: TK-10 renal
[36] = system: M14 melanoma
[37] = system: HS 578T breast
[38] = system: ACHN renal
[39] = system: LOX IMVI melanoma
[40] = system: OVCAR-4 ovarian
[41] = system: IGROV1 ovarian
[42] = system: HCT-15 colon
[43] = system: SNB-75 CNS
[44] = system: NCI-H522 lung
[45] = system: K-562 leukemia
[46] = system: CCRF-CEM leukemia
[47] = system: SF-268 CNS
[48] = system: NCI/ADR-RES ovarian
[49] = system: SF-539 CNS
[50] = system: SNB-19 CNS
[51] = system: KM12 colon
[52] = system: RXF 393 renal
[53] = system: SW-620 colon
[54] = system: OVCAR-8 ovarian
[55] = system: UACC-62 melanoma
[56] = system: NCI-H23 lung
[57] = system: OVCAR-5 ovarian

SMILES: O=C(CCCc1ccc(N(CCCl)CCCl)cc1)NCc1ccccc1
- GI50 [1]: 4.57 µM
- TGI [1]: 27.4 µM
- GI50 [2]: 6.6 µM
- TGI [2]: 43.4 µM
- GI50 [3]: 2.89 µM
- TGI [3]: 11.6 µM
- GI50 [4]: 12.1 µM
- TGI [4]: 55.5 µM
- GI50 [5]: 13.7 µM
- TGI [5]: 38.1 µM
- GI50 [6]: 13.2 µM
- TGI [6]: 37.6 µM
- GI50 [7]: 0.978 µM
- TGI [7]: 3.66 µM
- GI50 [8]: 8.14 µM
- TGI [8]: 22.7 µM
- GI50 [9]: 21.8 µM
- TGI [9]: 55 µM
- GI50 [10]: 3.08 µM
- TGI [10]: > 100 µM
- GI50 [11]: 21.6 µM
- TGI [11]: 91.5 µM
- GI50 [12]: 21.3 µM
- TGI [12]: > 100 µM
- GI50 [13]: 2.81 µM
- TGI [13]: 59.4 µM
- GI50 [14]: 3.69 µM
- TGI [14]: 18 µM
- GI50 [15]: 4.41 µM
- TGI [15]: > 100 µM
- GI50 [16]: 8.04 µM
- TGI [16]: 87.1 µM
- GI50 [17]: 2.33 µM
- TGI [17]: 14.4 µM
- GI50 [18]: 12.1 µM
- TGI [18]: 73.9 µM
- GI50 [19]: 6.88 µM
- TGI [19]: > 100 µM
- GI50 [20]: 8.21 µM
- TGI [20]: 52 µM
- GI50 [21]: 8 µM
- TGI [21]: 40.5 µM
- GI50 [22]: 3.23 µM
- TGI [22]: 28.6 µM
- GI50 [23]: 13.5 µM
- TGI [23]: 33 µM
- GI50 [24]: 7.15 µM
- TGI [24]: 40.8 µM
- GI50 [25]: 5.04 µM
- TGI [25]: 56.6 µM
- GI50 [26]: 4.37 µM
- TGI [26]: 23.4 µM
- GI50 [27]: 3.86 µM
- TGI [27]: 27.2 µM
- GI50 [28]: 14.6 µM
- TGI [28]: 47.2 µM
- GI50 [29]: 3.32 µM
- TGI [29]: 23.3 µM
- GI50 [30]: 17.2 µM
- TGI [30]: > 100 µM
- GI50 [31]: 2.59 µM
- TGI [31]: 20.8 µM
- GI50 [32]: 15.4 µM
- TGI [32]: 36.4 µM
- GI50 [33]: 5.43 µM
- TGI [33]: 39.1 µM
- GI50 [34]: 4.57 µM
- TGI [34]: 20.7 µM
- GI50 [35]: 15.5 µM
- TGI [35]: 56.8 µM
- GI50 [36]: 4.18 µM
- TGI [36]: 24.2 µM
- GI50 [37]: 15.6 µM
- TGI [37]: > 100 µM
- GI50 [38]: 3.91 µM
- TGI [38]: > 100 µM
- GI50 [39]: 5.37 µM
- TGI [39]: 23.9 µM
- GI50 [40]: 12.5 µM
- TGI [40]: 35.1 µM
- GI50 [41]: 13.8 µM
- TGI [41]: 43.9 µM
- GI50 [42]: 13.3 µM
- TGI [42]: > 100 µM
- GI50 [43]: 3.49 µM
- TGI [43]: 33 µM
- GI50 [44]: 6.42 µM
- TGI [44]: 24.5 µM
- GI50 [45]: 7.43 µM
- TGI [45]: 54.3 µM
- GI50 [46]: 3.24 µM
- TGI [46]: 25.4 µM
- GI50 [47]: 5.69 µM
- TGI [47]: 57.8 µM
- GI50 [48]: 6.88 µM
- TGI [48]: 60.7 µM
- GI50 [49]: 17.8 µM
- TGI [49]: 73.8 µM
- GI50 [50]: 18.7 µM
- TGI [50]: > 100 µM
- GI50 [51]: 12.3 µM
- TGI [51]: 52.1 µM
- GI50 [52]: 10.5 µM
- TGI [52]: 25.2 µM
- GI50 [53]: 6.4 µM
- TGI [53]: 73.4 µM
- GI50 [54]: 8.11 µM
- TGI [54]: > 100 µM
- GI50 [55]: 4.69 µM
- TGI [55]: 22 µM
- GI50 [56]: 4.77 µM
- TGI [56]: 33.1 µM
- GI50 [57]: 33.1 µM
- TGI [57]: > 100 µM
